According to US20080187575A1 (priority 2004, published 2008):

Tested on: pathogenic form of the prion protein PrP^Sc in prion infected cells (3F4-ScN2a)
Type: cell-based, mouse
Conditions: for amount of PrP^Sc in prion infected cells: concentration range between 5 and 20 μM (final concentration), three days; for activity of prion propagation (FIG. 5): within concentration range 5 to 20 μM

| SMILES | amount of PrP^Sc in prion infected cells | activity of prion propagation (FIG. 5) |
| --- | --- | --- |
| Cc1ccc(N)cc1Nc1nccc(-c2cccnc2)n1 [Compound 4, 4-Methyl-N-3-(4-pyridin-3-yl-pyrimidin-2-yl)-benzene-1,3-diamine] | significantly reduced | inhibit almost completely |
| O=S(=O)(Nc1cccc(Nc2nccc(-c3ccncc3)n2)c1)c1ccc(Cl)cc1 [Compound 37, 4-Chloro-N-[3-(4-pyridin-4-yl-pyrimidin-2-ylamino)-phenyl]-benzenesulfonamide] | significantly reduced | inhibit almost completely |
| Cc1ccc(NC(=O)c2ccc(CCl)cc2)cc1Nc1nccc(-c2cccnc2)n1 [Compound 5, 4-Chloromethyl-N-[4-methyl-3-(4-pyridin-3-yl-pyrimidin-2-ylamino)-phenyl]-benzamide] | significantly reduced | inhibit almost completely |
